The term IC50 denotes the concentration that inhibits the measured activity by half.

The results in this text go back to paper PMC6900016, “Synthesis of Indomorphan Pseudo‐Natural Product Inhibitors of Glucose Transporters GLUT‐1 and ‐3” (Angewandte Chemie (International Ed. in English), 2019).

The subject of the assay is HCT116. Put plainly: cells. On the set-up: 2-deoxyglucose uptake inhibition, semi-automated resazurin/diaphorase fluorescence read-out of 2DG6P. Conditions: Homo sapiens, HCT-116, 0.5 h; 2DG uptake. The procedure: Resazurin-based 2DG uptake assay (semi-automated high throughput) All buffers, reagents and steps were identical with those described for the manual screening Washing and [compound left out] addition steps were done using an automated cell washer or a multidrop device, respectively. Screening was performed in a 384-well plates. 15,000 HCT116 cells/well seeded into 384-well black-walled, clear bottomed plates (CellBIND, Corning) and incubated overnight. Compounds were added at 30 µM (final concentration for screening or serial dilutions staring from 30 µM for IC50 determinations) from DMSO stocks using the acoustic nanoliter dispenser ECHO 520. Fluorescence intensity was read from the bottom with a SpectraMax Paradigm Multi-Mode Microplate Reader (Molecular devices) using SUPPORTING INFORMATION 259 control (which was set to 100 %) and cells without 2DG (set to 0 %) using Graph Pad Prism 5 or 6 software and IC50 values were determined using a four-parameter fit. The observed difference in the obtained IC50 values for Glupin in the automated screening vs. manually performed assay is most likely attributed to the minituarization that is required for high-troughput screening and usually requires different plate format (384 vs. 96-well plates) and different cell number. In this case, the automated assay was performed in 384-well plates (vs. 96-well plates for the manual assay) with 15,000 cells per well (vs. 40,000 cells per well in the 96-well plates). For kinetic measurements, 15,000 cells were seeded into black CellBIND 384-well plates (Corning) and allowed to attach overnight. Then, the plates were washed 3X with KRB buffer containing 0.1%BSA and treated with different concentrations of 2DG (0-60mM) and Glupin (0-1µM) for 30s to 30min. The uptake was determined using the resazurin/diaphorase system as described above. 2DG uptake was stopped by aspirating the 2DG solution followed by quick wash with ice-cold KRB buffer (0.1 % BSA). Km and Vmax were determined by fitting the data according to Michaelis-Menten using non-linear fitting. The glucose uptake assay monitored the inhibition of 2‐deoxyglucose (2DG) uptake as described by Yamamoto et al.25 Briefly, 2DG uptake is determined by quantification of the 2DG‐6‐phosphate (2DG6P) that accumulates inside the cells by using the diaphorase‐resazurin/‐resorufin system (see Figure S7 a).
For `COC1CN(C(=O)c2cccnc2SC)C2Cc3c(n(Cc4ccco4)c4ccccc34)C1C2` (racemic) [5o, (±)-(7-(furan-2-ylmethyl)-5-methoxy-5,6-dihydro-1H-2,6-methanoazocino[5,4-b]indol-3(2H,4H,7H)-yl)(2-(methylthio)pyridin-3-yl)methanone], the concentration for half-maximal inhibition (IC50) amounted to 6700 ± 2400 nM.
The result for `COC1CN(C(=O)c2cccnc2SC)C2Cc3c(n(CC(=O)Oc4ccccc4)c4ccccc34)C1C2` (racemic) [5ae, (±)-phenyl 2-(5-methoxy-3-(2-(methylthio)nicotinoyl)-3,4,5,6-tetrahydro-1H-2,6-methanoazocino[5,4-b]indol-7(2H)-yl)acetate] reads 220 ± 80 nM; that for `CNC(=O)Cn1c2c(c3ccccc31)CC1CC2C(OC)CN1C(=O)N1CCOCC1` (stereo not drawn) [5ay], over 30000 nM; that for `CCOC(=O)Cn1c2c(c3ccccc31)CC1CC2C(OC)CN1C(=O)c1cccnc1C(F)(F)F` (racemic) [5w, (±)-Ethyl 2-(5-methoxy-3-(2-(trifluoromethyl)nicotinoyl)-1,2,3,4,5,6-hexahydro-7H-2,6-methanoazocino[5,4-b]indol-7-yl)acetate], 120 ± 30 nM.
The result for `CCOC(=O)Cn1c2c(c3ccccc31)CC1CC2C(OC)CN1C(=O)c1cccnc1OC` (racemic) [5v, (±)-Ethyl 2-(5-methoxy-3-(2-methoxynicotinoyl)-1,2,3,4,5,6-hexahydro-7H-2,6-methanoazocino[5,4-b]indol-7-yl)acetate] reads 230 ± 50 nM; that for `CCOC(=O)Cn1c2c(c3cc(C(=O)N4CCOCC4)ccc31)CC1CC2C(OC)CN1C(=O)c1cccnc1SC` (racemic) [5ab, (±)-Ethyl 2-(5-methoxy-3-(2-(methylthio)nicotinoyl)-10-(morpholine-4-carbonyl)-1,2,3,4,5,6-hexahydro-7H-2,6-methanoazocino[5,4-b]indol-7-yl)acetate], over 30000 nM.
To `CCOC(=O)Cn1c2c(c3ccccc31)CC1CC2C(OC)CN1C(=O)c1ccc(C)o1` (racemic) [5at, (±)-Ethyl 2-(5-methoxy-3-(5-methylfuran-2-carbonyl)-1,2,3,4,5,6-hexahydro-7H-2,6-methanoazocino[5,4-b]indol-7-yl)acetate] belongs 8600 ± 4000 nM.
Turning to `CCOC(=O)Cn1c2c(c3cc(C(=O)OCC)ccc31)CC1CC2C(OC)CN1C(=O)c1cccnc1SC` (stereo not drawn) [5i, Ethyl 7-(2-ethoxy-2-oxoethyl)-5-methoxy-3-(2-(methylthio)nicotinoyl)-2,3,4,5,6,7-hexahydro-1H-2,6-methanoazocino[5,4-b]indole-10-carboxylate], the IC50 was over 30000 nM.
The result for `CCOC(=O)Cn1c2c(c3ccccc31)CC1CC2C(OC)CN1C(=O)c1cnccn1` (stereo not drawn) [5aw] reads 2000 ± 400 nM.
The result for `CCOC(=O)Cn1c2c(c3cc(O)ccc31)CC1CC2C(OC)CN1C(=O)c1cccnc1SC` (racemic) [5f, (±)-Ethyl 2-(-10-hydroxy-5-methoxy-3-(2-(methylthio)nicotinoyl)-1,2,3,4,5,6-hexahydro-7H-2,6-methanoazocino[5,4-b]indol-7-yl)acetate] reads 100 ± 60 nM; that for `CCCOC(=O)Cn1c2c(c3ccccc31)CC1CC2C(OC)CN1C(=O)c1cccnc1SC` (racemic) [5l, (±)-Propyl 2-(-5-methoxy-3-(2-(methylthio)nicotinoyl)-3,4,5,6-tetrahydro-1H-2,6-methanoazocino[5,4-b]indol-7(2H)-yl)acetate], 93 ± 35 nM; that for `CCOC(=O)Cn1c2c(c3ccccc31)CC1CC2C(OC)CN1C(=O)c1cccnc1OCC` (racemic) [5ak, (±)-Ethyl 2-(3-(2-ethoxynicotinoyl)-5-methoxy-1,2,3,4,5,6-hexahydro-7H-2,6-methanoazocino[5,4-b]indol-7-yl)acetate], 220 ± 70 nM.
Consider `CCOC(=O)Cn1c2c(c3cccc(Cl)c31)CC1CC2C(OC)CN1C(=O)c1cccnc1SC` (racemic) [5h, (±)-Ethyl 2-(8-chloro-5-methoxy-3-(2-(methylthio)nicotinoyl)-1,2,3,4,5,6-hexahydro-7H-2,6-methanoazocino[5,4-b]indol-7-yl)acetate], for which the IC50 came to 210 ± 90 nM.
For the molecule `CCOC(=O)Cn1c2c(c3ccccc31)CC1CC2C(OC)CN1C(=O)c1cccnc1` (racemic) [5t, (±)-Ethyl 2-(5-methoxy-3-nicotinoyl-3,4,5,6-tetrahydro-1H-2,6-methanoazocino[5,4-b]indol-7(2H)-yl)acetate], the IC50 is 2300 ± 800 nM.
To `CNC(=O)Cn1c2c(c3ccccc31)CC1CC2C(OC)CN1C(=O)Cc1cccs1` (stereo not drawn) [5au] belongs 16000 ± 1000 nM; to `CCOC(=O)CCn1c2c(c3ccccc31)CC1CC2C(OC)CN1C(=O)c1cccnc1SC` (racemic) [5q, (±)-ethyl 3-(5-methoxy-3-(2-(methylthio)nicotinoyl)-3,4,5,6-tetrahydro-1H-2,6-methanoazocino[5,4-b]indol-7(2H)-yl)propanoate], 8400 ± 3600 nM; to `CNC(=O)Cn1c2c(c3ccccc31)CC1CC2C(OC)CN1C(=O)c1cccnc1SC` (stereo not drawn) [5m], 1450 ± 600 nM.
On to `CCOC(=O)Cn1c2c(c3ccccc31)CC1CC2C(OC)CN1C(=O)c1cncnc1` (racemic) [5ap, (±)-Ethyl 2-(5-methoxy-3-(pyrimidine-5-carbonyl)-1,2,3,4,5,6-hexahydro-7H-2,6-methanoazocino[5,4-b]indol-7-yl)acetate], for which the IC50 was 14000 ± 5000 nM.
The result for `CCOC(=O)Cn1c2c(c3cc(Cl)ccc31)CC1CC2C(OC)CN1C(=O)c1cccnc1SC` (racemic) [5g, (±)-Ethyl 2-(10-chloro-5-methoxy-3-(2-(methylthio)nicotinoyl)-1,2,3,4,5,6-hexahydro-7H-2,6-methanoazocino[5,4-b]indol-7-yl)acetate] reads 1400 ± 200 nM; that for `COC1CN(C(=O)c2cccnc2SC)C2Cc3c(n(CC(=O)OC(C)(C)C)c4ccccc34)C1C2` (racemic) [5k, (±)-tert-butyl 2-(5-methoxy-3-(2-(methylthio)nicotinoyl)-3,4,5,6-tetrahydro-1H-2,6-methanoazocino[5,4-b]indol-7(2H)-yl)acetate], 190 ± 60 nM.
The result for `CCOC(=O)Cn1c2c(c3ccccc31)CC1CC2C(OC)CN1C(=O)c1cccnc1Sc1ccccc1` (racemic) [5ah, (±)-Ethyl 2-(5-methoxy-3-(2-(phenylthio)nicotinoyl)-1,2,3,4,5,6-hexahydro-7H-2,6-methanoazocino[5,4-b]indol-7-yl)acetate] reads 140 ± 70 nM; that for `CCOC(=O)Cn1c2c(c3ccccc31)CC1CC2C(OC)CN1C(=O)N1CCOCC1` (stereo not drawn) [5r], 3160 nM; that for `CCOC(=O)Cn1c2c(c3ccccc31)CC1CC2C(OC)CN1C(=O)c1cccnc1Br` (racemic) [5aj, (±)-Ethyl 2-(3-(2-bromonicotinoyl)-5-methoxy-1,2,3,4,5,6-hexahydro-7H-2,6-methanoazocino[5,4-b]indol-7-yl)acetate], 180 ± 60 nM.
For `CCOC(=O)Cn1c2c(c3ccccc31)CC1CC2C(OC(C)=O)CN1C(=O)c1cccnc1SC` (racemic) [5b, (±)-Ethyl 2-(5-acetoxy-3-(2-(methylthio)nicotinoyl)-1,2,3,4,5,6-hexahydro-7H-2,6-methanoazocino[5,4-b]indol-7-yl)acetate], the IC50 came to 53 ± 23 nM.
To `CCOC(=O)Cn1c2c(c3ccccc31)CC1CC2C(OC)CN1C(=O)c1cccnc1Cl` (racemic) [5af, (±)-Ethyl 2-(3-(2-chloronicotinoyl)-5-methoxy-1,2,3,4,5,6-hexahydro-7H-2,6-methanoazocino[5,4-b]indol-7-yl)acetate] belongs 93 ± 41 nM.
The result for `CCOC(=O)Cn1c2c(c3ccccc31)CC1CC2C(OC)CN1C(=O)c1ccco1` (stereo not drawn) [5s] reads 3400 ± 300 nM.
To `C=CCOC1CN(C(=O)c2cccnc2SC)C2Cc3c(n(CC(=O)OCC)c4ccccc34)C1C2` (racemic) [5z, (±)-Ethyl 2-(5-(allyloxy)-3-(2-(methylthio)nicotinoyl)-1,2,3,4,5,6-hexahydro-7H-2,6-methanoazocino[5,4-b]indol-7-yl)acetate] belongs 120 ± 20 nM; to `CCOC(=O)Cn1c2c(c3ccccc31)CC1CC2C(OC)CN1C(=O)c1cccnc1F` (racemic) [5u, (±)-Ethyl 2-(3-(2-fluoronicotinoyl)-5-methoxy-1,2,3,4,5,6-hexahydro-7H-2,6-methanoazocino[5,4-b]indol-7-yl)acetate], 540 ± 160 nM; to `COC1CN(C(=O)c2cccnc2SC)C2Cc3c(n(CC(=O)O)c4ccccc34)C1C2` (racemic) [5n, (±)-2-(5-methoxy-3-(2-(methylthio)nicotinoyl)-1,2,3,4,5,6-hexahydro-7H-2,6-methanoazocino[5,4-b]indol-7-yl)acetic acid], 10000 ± 4000 nM.
Consider `CCOC(=O)Cn1c2c(c3ccccc31)CC1CC2C(OC)CN1C(=O)c1ccncc1` (racemic) [5ao, (±)-Ethyl 2-(3-isonicotinoyl-5-methoxy-1,2,3,4,5,6-hexahydro-7H-2,6-methanoazocino[5,4-b]indol-7-yl)acetate], for which the IC50 came out at 13000 ± 3000 nM.
